For data set [1], the system named is doxorubicin-induced nephrotoxicity model. Description: Doxorubicin-induced nephrotoxicity model (serum albumin, serum creatinine, kidney histology). In kind it is in vivo, mice. As for the experimental part: C57BI/6 mice (6-10 week-old) were treated with Compound I prophylacticly from day −3 to day 10 or treated therapeutically from day 1 to 10. Nephrotoxicity was induced by an intravenous injection of 10 mg/kg of doxorubicin at day 0. Serum albumin and creatinine were monitored at days 4, 7, 9 and 11.

Data set [2] relates to ⅚ nephrectomized (Nx) rat model. Description: Kidney protection in ⅚ nephrectomized rat model (GFR, creatinine clearance). As to conditions: Nx rats over treatment period; 50% deterioration in Nx control rats (FIG. 5). Format: in vivo. An excerpt:
Male 6 week-old Wistar rats were subjected to ⅚ nephrectomy or sham operations. Under fluothane anesthesia, renal ablation was achieved by removing two-thirds of the left kidney followed by a right unilateral nephrectomy 7 days later. Sham rats underwent exposition of the kidneys and removal of the perirenal fat. Twenty-one days after the first operation, rats were randomized in the study by their reduced glomerular filtration rate (GFR) of creatinine indicating a dysfunction of the kidney. Animals that underwent the sham operation were given vehicle (saline) and were used as controls. Nx animals were divided in groups receiving the vehicle or Compound I. Saline or Compound I was given by gastric gavage once daily up to the sacrifice. GFR was measured every three weeks in order to assess the severity of this end-stage renal disease model. Rats were sacrificed at day 190.

Data set [3] can be described thus: Physical properties of the salt and the free acid (hygroscopicity, water solubility). In kind it is physicochemical.
The test system of data set [4] is RAW264.7 (macrophage-like) cells. The data set can be described thus: Nitric oxide production in LPS/interferon-stimulated RAW264.7 cells (Griess reagent). Format: cell-based. As to conditions: 1 μg/ml LPS and 0.5 ng/ml interferon, 16 hours, dose dependent. As for the experimental part:
The effect of Compound I on NO production was undertaken in RAW264.7 (macrophage-like) cells. RAW264.7 cells were cultured with 1 μg/ml of LPS and 0.5 ng/ml of interferon in presence or absence of the compound for 16 hours in a humidified atmosphere of 95% air-5% carbon dioxide at 37° C. Nitric oxide measurement in the culture medium was measured using the Griess reagent after an incubation of 30 minutes at room temperature. The absorbance at 548 nm was read and compared with standard solutions of NaNO2. Cell viability was assessed with the addition of 50 μl of […]. After an incubation of 4 hours, the medium was removed and 150 μl of DMSO was added to dissolve the crystals. The optical density of each sample was read at 570 nm against a blank prepared from cell-free wells.
On the technique in general: The Griess reaction detects nitrite, a stable product of nitric oxide.

Another data set relates to PGE2. Description: LPS-induced inflammation in the rat air-pouch model (PGE2 in pouch exudates by ELISA). In kind it is in vivo, rats. As to conditions: two hours after administration of LPS (FIG. 3). An excerpt:
LPS-induced inflammation in the rat air-pouch model is believed to mimic the pathological process occurring in joint diseases such as arthritis. This is because the connective tissues formed along the air pouch are similar to those found in chronic joint diseases. LPS-induced inflammation and chronic joint diseases share other features, including markedly elevated PGE2, neutrophil infiltration, cytokine formation, and tissue damage. An air cavity was produced at day −6 by subcutaneous injection of 20 ml of sterile air into the intrascapular area of the back of male Lewis rats (175-200 g). An additional 10 ml of air was injected into the cavity at day −3 to keep the space open. At day 0, Compound I was administered intravenously and one hour later lipopolysaccharide (LPS: 2.5 ml, 2 μg/ml in PBS) was injected into the pouch to produce an inflammatory reaction. Two hours after treatment with LPS, animals were euthanized by CO2 asphyxiation and 5 ml of PBS/heparin (10 U/ml)/indomethacin (36 μg/ml) was injected into the pouch. The pouch fluid was collected and PGE2 was determined in the pouch exudates by ELISA.

Counter-ions that a name gives are not always drawn.

With `CCCCCc1cccc(CC(=O)O)c1` [Compound I, sodium salt of 3-pentylphenylacetic acid], the “kidney lesions at the tubular level induced by doxorubicin (histological score)” value in data set [1] (prophylactic (pre-doxorubicin) and therapeutic (post-doxorubicin) treatments, mice (FIG. 9)) is listed as “reduce the kidney lesions”. For the same compound, the “protection of kidney against doxorubicin toxicity (histological micrographs)” value in data set [1] (prophylactic or therapeutic treatment, mice (FIG. 10)) is “protects kidney against doxorubicin toxicity”. In addition, the “decrease of serum albumin induced by doxorubicin” value in data set [1] (prophylactic treatment day −3 to day 10, oral, mice (FIG. 7)) was “inhibits”. Besides, in data set [1] (prophylactic treatment day −3 to day 10, oral, mice (FIG. 8)), the “increase of serum creatinine induced by doxorubicin” value is on record as “inhibits”. Moreover, the “increase of serum creatinine level induced by doxorubicin” value in data set [1] (therapeutic treatment day 1 to 10, oral, mice (FIG. 8)) is reported as “inhibits”. In addition, in data set [2], the “improvement of GFR compared to the initial GFR (before treatment) at day 21” value came out at 50%. In addition, in data set [3], the hygroscopicity result is listed as “not hygroscopic” and the water solubility entry was “very water soluble”. The “inhibition of NO production” value in data set [4] was “about 50%”.
Regarding `COc1cccc2c1C(=O)c1c(O)c3c(c(O)c1C2=O)C[C@@](O)(C(=O)CO)C[C@@H]3O[C@H]1C[C@H](N)[C@H](O)[C@H](C)O1` [Doxorubicin, doxorubicin, reference compound], the “kidney lesions induced by doxorubicin alone (histological score)” value in data set [1] (doxorubicin 10 mg/kg i.v. day 0, mice, day 7 and 11) is “significant kidney lesions”.
Turning to `COc1ccc2c(c1)c(CC(=O)O)c(C)n2C(=O)c1ccc(Cl)cc1` [indomethacin], the “inhibition of PGE2” value in the data set with PGE2 is listed as “inhibition”.
